Laboratory results reported in patent US20040162221A1, “Pyrazole derivatives and herbicides containing the same” (IDEMITSU KOSAN CO., LTD., priority 1998, published 2004).

What was measured:
Conditions in all cases: post-emergence spray at 3-4 leaf stage, 80 g/ha, 30th day after treatment, greenhouse
redroot pigweed = test: Upland post-emergence treatment test, redroot pigweed; assay type: in vivo, redroot pigweed (Amaranthus retroflexus)
Source text: (§1) 97 Parts by weight of talc (trade name: Zeaklite, supplied by Zeaklite Industry) as a carrier, 1.5 parts by weight of alkylarylsulfonic acid salt (trade name: Neoplex, supplied by Kao-Atlas K.K.) as a surfactant and 1.5 parts by weight of a nonionic and anionic surfactant (trade names Sorpol 800A, supplied by Toho Chemical Co., Ltd.) were uniformly pulverized and mixed to prepare a carrier for a wettable powder.
(§2) 90 Parts by weight of the above carrier for a wettable powder and 10 parts by weight of one of the compounds of the present invention were uniformly pulverized and mixed to obtain herbicides. Further, in Comparative Herbicide Examples, comparative herbicides were also prepared from the following compounds (A) and (B) in the same manner.
(§3) Herbicidal efficacy and phytotoxicity to crops were determined on the basis of the ratio of remaining plant weight to plant weight in non-treated plot=(remaining plant weight in treated plot/plant weight in non-treated-plot)×100. The ratings were applied to the following biological tests.
(§4) Seeds of weeds velvetleaf, redroot pigweed, common ragweed, green foxtail and large crabgrass and seeds of corn were sown in 1/5,000-are Wagner pots filled with upland soil, and covered with upland soil. The seeds were grown in a greenhouse, and at the stage of 3˜4 leaves of these plants, a predetermined amount of the herbicide prepared in the above (1) was suspended in water, and the suspension was uniformly sprayed onto leaf and stalk portions at a rate of 2,000 liters/hectare. Then, the plants were grown in the greenhouse, and on the 30th day after the treatment, the herbicide was evaluated for herbicidal efficacy and phytotoxicity to the corn on the basis of the ratings shown in (2).

green foxtail = test: Upland post-emergence treatment test, green foxtail; assay type: in vivo, green foxtail (Setaria viridis)
Source text: as §1, §2, §3, §4

large crabgrass = test: Upland post-emergence treatment test, large crabgrass; assay type: in vivo
Source text: as §1, §2, §3, §4

velvetleaf = test: Upland post-emergence treatment test, velvetleaf; assay type: in vivo, velvetleaf (Abutilon theophrasti)
Source text: as §1, §2, §3, §4

common ragweed = test: Upland post-emergence treatment test, common ragweed; assay type: in vivo, common ragweed (Ambrosia artemisilfolia)
Source text: as §1, §2, §3, §4

corn = test: Upland post-emergence treatment test, phytotoxicity to corn; assay type: in vivo
Source text: as §1, §2, §3, §4
Further: ranges in brackets are in %.

Row | SMILES | Herbicidal Efficacy CC = Redroot Pigweed (redroot pigweed) | Herbicidal Efficacy EE = Green foxtail (green foxtail) | Herbicidal Efficacy FF = Large crabgrass (large crabgrass) | Herbicidal Efficacy AA = Velvetleaf (velvetleaf) | Herbicidal Efficacy DD = Common ragweed (common ragweed) | Phytotoxicity Corn (corn)
1 | Cc1c(C(=O)c2cnn(C)c2OS(=O)(=O)CCCCl)ccc2c1C(C)(C)CS2(=O)=O [Compound 14] | 5 (0) | 5 (0) | 5 (0) | 5 (0) | 5 (0) | − (100)
2 | CCC(=O)Oc1c(C(=O)c2ccc3c(c2C)C(C)(C)CS3(=O)=O)cnn1C [Compound 29] | 5 (0) | 5 (0) | 5 (0) | 5 (0) | 5 (0) | − (100)
3 | Cc1c(C(=O)c2cnn(C)c2OS(=O)(=O)C2CC2)ccc2c1C(C)(C)CS2(=O)=O [Compound 6] | 5 (0) | 5 (0) | 5 (0) | 5 (0) | 5 (0) | − (100)
4 | Cc1c(C(=O)c2cnn(C)c2OS(=O)(=O)c2ccc([N+](=O)[O-])cc2)ccc2c1C(C)(C)CS2(=O)=O [Compound 26] | 5 (0) | 5 (0) | 5 (0) | 5 (0) | 5 (0) | − (100)
5 | Cc1c(C(=O)c2cnn(C)c2OS(=O)(=O)CC(C)C)ccc2c1C(C)(C)CS2(=O)=O [Compound 8] | 5 (0) | 5 (0) | 5 (0) | 5 (0) | 5 (0) | − (100)
6 | Cc1c(C(=O)c2cnn(C)c2OS(=O)(=O)c2ccccc2)ccc2c1C(C)(C)CS2(=O)=O [Compound 15] | 5 (0) | 5 (0) | 5 (0) | 5 (0) | 5 (0) | − (100)
7 | Cc1ccc(C(=O)Oc2c(C(=O)c3ccc4c(c3C)C(C)(C)CS4(=O)=O)cnn2C)cc1 [Compound 42] | 5 (0) | 5 (0) | 5 (0) | 5 (0) | 5 (0) | − (100)
8 | CCc1ccc(S(=O)(=O)Oc2c(C(=O)c3ccc4c(c3C)C(C)(C)CS4(=O)=O)cnn2C)cc1 [Compound 19] | 5 (0) | 5 (0) | 5 (0) | 5 (0) | 5 (0) | − (100)
9 | Cc1cc(C)c(S(=O)(=O)Oc2c(C(=O)c3ccc4c(c3C)C(C)(C)CS4(=O)=O)cnn2C)c(C)c1 [Compound 27] | 5 (0) | 5 (0) | 5 (0) | 5 (0) | 5 (0) | − (100)
10 | CCCCCCCCS(=O)(=O)Oc1c(C(=O)c2ccc3c(c2C)C(C)(C)CS3(=O)=O)cnn1C [Compound 12] | 5 (0) | 5 (0) | 5 (0) | 5 (0) | 5 (0) | − (100)
11 | Cc1c(C(=O)c2cnn(C)c2OS(=O)(=O)C(C)C)ccc2c1C(C)(C)CS2(=O)=O [Compound 5] | 5 (0) | 5 (0) | 5 (0) | 5 (0) | 5 (0) | − (100)
12 | CC(C)N.Cc1c(C(=O)c2cnn(C)c2O)ccc2c1C(C)(C)CS2(=O)=O [Compound 51] | 5 (0) | 5 (0) | 5 (0) | 5 (0) | 5 (0) | − (100)
13 | CCCCS(=O)(=O)Oc1c(C(=O)c2ccc3c(c2C)C(C)(C)CS3(=O)=O)cnn1C [Compound 7] | 5 (0) | 5 (0) | 5 (0) | 5 (0) | 5 (0) | − (100)
14 | Cc1c(C(=O)c2cnn(C)c2OS(=O)(=O)CCl)ccc2c1C(C)(C)CS2(=O)=O [Compound 13] | 5 (0) | 5 (0) | 5 (0) | 5 (0) | 5 (0) | − (100)
15 | Cc1c(C(=O)c2cnn(C)c2OS(=O)(=O)c2ccc(Cl)cc2Cl)ccc2c1C(C)(C)CS2(=O)=O [Compound 24] | 5 (0) | 5 (0) | 5 (0) | 5 (0) | 5 (0) | − (100)
16 | COc1ccc(S(=O)(=O)Oc2c(C(=O)c3ccc4c(c3C)C(C)(C)CS4(=O)=O)cnn2C)cc1 [Compound 25] | 5 (0) | 5 (0) | 5 (0) | 5 (0) | 5 (0) | − (100)
17 | Cc1c(C(=O)c2cnn(C)c2OS(=O)(=O)c2ccc(Cl)cc2)ccc2c1C(C)(C)CS2(=O)=O [Compound 21] | 5 (0) | 5 (0) | 5 (0) | 5 (0) | 5 (0) | − (100)
